Where a name gives a salt, the structure may show the parent alone.
What was measured:
[1] = target: T1, acetylcholinesterase (Rattus norvegicus, UniProt P37136); test: biochemical; conditions: rat brain homogenate as enzyme source; acetylthiocholine substrate, DTNB, absorbance at 412 nm; read-out: IC50 (50% inhibitory concentration on acetylcholinesterase)
T1 construct: Using a rat brain homogenate as a source of acetylcholinesterase; from tissue; host or cells: rat brain homogenate
T1 sequence (P37136 32-614): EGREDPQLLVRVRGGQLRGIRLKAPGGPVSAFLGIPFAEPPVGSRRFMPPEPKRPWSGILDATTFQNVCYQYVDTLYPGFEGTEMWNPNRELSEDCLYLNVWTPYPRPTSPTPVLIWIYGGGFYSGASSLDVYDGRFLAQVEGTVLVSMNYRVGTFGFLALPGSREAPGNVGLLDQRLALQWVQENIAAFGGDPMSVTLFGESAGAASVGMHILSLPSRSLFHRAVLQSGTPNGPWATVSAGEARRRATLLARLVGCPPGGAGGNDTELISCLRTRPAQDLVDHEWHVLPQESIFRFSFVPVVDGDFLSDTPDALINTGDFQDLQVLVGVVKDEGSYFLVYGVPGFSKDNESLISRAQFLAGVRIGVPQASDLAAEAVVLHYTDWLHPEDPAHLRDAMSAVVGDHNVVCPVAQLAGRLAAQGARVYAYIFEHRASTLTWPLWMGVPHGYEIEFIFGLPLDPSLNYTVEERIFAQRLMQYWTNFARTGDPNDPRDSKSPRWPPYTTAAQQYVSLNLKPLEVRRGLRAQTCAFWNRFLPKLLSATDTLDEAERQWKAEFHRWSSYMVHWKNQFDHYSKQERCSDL
Experimental: Inhibitory effect on acetylcholinesterase in vitro
Using a rat brain homogenate as a source of acetylcholinesterase, the esterase activity was determined in accordance with the method of Ellman et al^1). Acethylthiocholine (as a substrate), a test compound and DTNB (5,5′-dithiobis(2-nitrobenzoic acid)) were added to the […] brain homogenate, and then incubated. Then, the resulting yellow product produced by the reaction of the resulting thiocholine with DTNB was determined for the change in absorbanceat 412 nm, to determine the acethylcholinesterase activity.
^1); Ellman. G. L., Courtney, K. D., Andres, V. and Featherstone, R. M., (1961), Biochem. Pharmacol., 7, 88-95.
The inhibitory effect of each test compound on acethylcholinesterase was determined in terms of 50% inhibitory concentration (IC50).
Each of the compounds was dissolved in physiological saline for use as a test sample.

Compound | melting point | IC50 [1]
COc1cc2c(cc1OC)C(=O)C(F)(CC1CCN(Cc3ccccn3)CC1)C2 (stereo not drawn) (as salt: hydrochloride) | 177 to 180 °C | –
COc1cc2c(cc1OC)C(=O)C(F)(CC1CCN(CC3OCCO3)CC1)C2 (stereo not drawn) (as salt: hydrochloride) | 143 to 145 °C | –
COc1cc2c(cc1OC)C(=O)C(F)(CC1CCN(Cc3cccc(C#N)c3)CC1)C2 (stereo not drawn) (as salt: hydrochloride) | 139 to 141 °C | –
CCOc1cc2c(cc1OCC)C(=O)C(F)(CC1CCN(Cc3ccccc3)CC1)C2 (stereo not drawn) [Example 1, 1-Benezyl-4-[(5,6-diethoxy-2-flouro-1-indanon)-2-yl]methylpiperidine Hydrochloride] | – | 0.38 nM
COc1cc2c(cc1OC)C(=O)C(F)(CC1CCN(Cc3cccc(F)c3)CC1)C2 (stereo not drawn) [Example 4, 4-[(5,6-Dimethoxy-2-flouro-indanon)-2-yl]methyl-1-(3-flourobenzyl)piperidine Hydrochloride] | – | 0.47 nM
COc1cc2c(cc1OC)C(=O)C(F)(CC1CCN(Cc3cccc(C)c3)CC1)C2 (stereo not drawn) [Example 5, 4-[(5,6-Dimethoxy-2-flouro-1-indanon)-2-yl]methyl-1-(3-methylbenzyl)piperidine Hydrochoride] | – | 0.82 nM
COc1cc2c(cc1OC)C(=O)C(F)(CC1CCN(CC3CCCCC3)CC1)C2 (stereo not drawn) [Example 6, 1-(-Cyclohexylmethyl-4-[(5,6-dimethoxy-2-flouro-1-indanon)-2-yl]methylpiperidine Hydrochloride] | – | 1.7 nM
COc1cc2c(cc1OC)C(=O)C(F)(CC1CCN(Cc3cccc([N+](=O)[O-])c3)CC1)C2 (stereo not drawn) [Example 11, 4-[(5,6-Dimethoxy-2-flouro-1-indanon)-2-yl]methyl-1-(3-nitrobenzyl)piperidine Hydrochloride] | – | 0.7 nM
COc1ccc2c(c1)CC(F)(CC1CCN(Cc3ccccc3)CC1)C2=O (stereo not drawn) [Example 12, 1-Benzyl-4-[(5-methoxy-2-flouro-1-indanon)-2-yl]methylpiperidine Hydrochloride] | – | 1.2 nM
COc1cc2c(cc1OC)C(=O)C(F)(CCCC1CCN(Cc3ccccc3)CC1)C2 (stereo not drawn) [Example 14, 1-Benzyl-4-[3-[5,6-dimethoxy-2-flouro-1-indanon)-2-yl]propyl]piperidine Hydrochloride] | – | 1.4 nM
COc1cc2c(cc1OC)C(=O)C(F)(CC1CCN(Cc3ccc(O)cc3)CC1)C2 (stereo not drawn) [Example 15, 4-[(5,6-Dimethoxy-2-flouro-1-indanon)-2-yl]methyl-1-(4-hydroxybenzyl)piperidine Hydrochloride] | – | 0.32 nM
CCCOc1cc2c(cc1OCCC)C(=O)C(F)(CC1CCN(Cc3ccccc3)CC1)C2 (stereo not drawn) [Example 17, 1-Benzyl-4-[[[5,6-di-(1-propyloxy)]-2-flouro-1-indanon-2-yl]methylpiperidine Hydrochloride] | – | 0.89 nM
